Assays:
Estrogen receptor [1] = molecular target: T1, Estrogen receptor (Rattus norvegicus, UniProt P06211); assay: Binding affinity for Rat Estrogen receptor-alpha
T1 sequence (P06211 whole entry): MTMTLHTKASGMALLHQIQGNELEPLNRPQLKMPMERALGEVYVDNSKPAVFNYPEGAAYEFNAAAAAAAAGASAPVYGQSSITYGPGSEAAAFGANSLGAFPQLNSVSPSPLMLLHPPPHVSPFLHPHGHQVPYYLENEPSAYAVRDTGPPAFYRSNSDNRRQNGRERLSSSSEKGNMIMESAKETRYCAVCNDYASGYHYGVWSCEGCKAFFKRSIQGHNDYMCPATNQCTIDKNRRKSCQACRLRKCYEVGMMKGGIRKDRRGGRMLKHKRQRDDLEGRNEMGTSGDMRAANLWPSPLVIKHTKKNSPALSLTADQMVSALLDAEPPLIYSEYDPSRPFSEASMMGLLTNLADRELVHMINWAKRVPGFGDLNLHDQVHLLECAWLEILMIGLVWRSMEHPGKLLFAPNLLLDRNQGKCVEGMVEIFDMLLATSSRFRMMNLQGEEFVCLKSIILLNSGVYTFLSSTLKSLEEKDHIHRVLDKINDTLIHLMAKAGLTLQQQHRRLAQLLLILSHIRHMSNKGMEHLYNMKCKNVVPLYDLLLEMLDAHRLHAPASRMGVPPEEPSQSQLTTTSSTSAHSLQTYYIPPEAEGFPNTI

Estrogen receptor beta [2] = molecular target: Estrogen receptor beta (Homo sapiens, UniProt Q92731)
Chain of Estrogen receptor beta (Homo sapiens, UniProt Q92731) (Q92731 whole entry): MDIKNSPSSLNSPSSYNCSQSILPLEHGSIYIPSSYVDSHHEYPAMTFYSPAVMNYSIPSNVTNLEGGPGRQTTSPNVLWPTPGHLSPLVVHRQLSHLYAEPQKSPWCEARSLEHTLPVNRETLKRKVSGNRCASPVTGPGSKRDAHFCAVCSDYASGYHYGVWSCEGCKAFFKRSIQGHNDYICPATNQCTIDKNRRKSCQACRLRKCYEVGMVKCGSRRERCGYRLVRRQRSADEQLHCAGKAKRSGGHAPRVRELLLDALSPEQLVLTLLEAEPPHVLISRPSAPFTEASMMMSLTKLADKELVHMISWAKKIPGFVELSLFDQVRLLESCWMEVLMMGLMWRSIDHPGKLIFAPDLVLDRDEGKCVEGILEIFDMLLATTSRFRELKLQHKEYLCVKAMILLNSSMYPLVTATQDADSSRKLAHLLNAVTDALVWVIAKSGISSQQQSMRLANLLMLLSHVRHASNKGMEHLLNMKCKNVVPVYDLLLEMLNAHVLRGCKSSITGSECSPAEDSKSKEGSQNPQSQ
Description: Binding affinity for Human Estrogen receptor-beta

Estrogen receptor [3] = molecular target: T2, Estrogen receptor (Homo sapiens, UniProt P03372)
T2 sequence (P03372 whole entry): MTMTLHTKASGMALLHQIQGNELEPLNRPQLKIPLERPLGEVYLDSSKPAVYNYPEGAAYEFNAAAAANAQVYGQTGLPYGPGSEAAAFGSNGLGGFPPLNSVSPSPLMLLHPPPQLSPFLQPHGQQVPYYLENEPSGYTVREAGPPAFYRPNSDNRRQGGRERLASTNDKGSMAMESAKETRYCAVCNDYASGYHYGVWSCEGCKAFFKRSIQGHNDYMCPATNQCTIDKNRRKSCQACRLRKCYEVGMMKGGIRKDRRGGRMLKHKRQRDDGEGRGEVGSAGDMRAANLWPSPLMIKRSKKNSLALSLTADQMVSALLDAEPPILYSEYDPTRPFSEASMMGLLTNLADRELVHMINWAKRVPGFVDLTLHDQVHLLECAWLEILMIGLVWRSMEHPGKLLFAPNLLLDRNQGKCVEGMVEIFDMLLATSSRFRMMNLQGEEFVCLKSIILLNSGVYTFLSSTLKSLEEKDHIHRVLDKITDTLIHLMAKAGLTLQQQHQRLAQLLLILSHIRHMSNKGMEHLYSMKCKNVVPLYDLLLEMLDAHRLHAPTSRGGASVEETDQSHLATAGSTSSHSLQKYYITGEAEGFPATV
Description: Binding affinity for Human Estrogen receptor-alpha

Estrogen receptor beta [4] = molecular target: Estrogen receptor beta (Rattus norvegicus, UniProt Q62986); assay: Binding affinity foor Rat Estrogen receptor-beta
Chain of Estrogen receptor beta (Rattus norvegicus, UniProt Q62986) (Q62986 whole entry): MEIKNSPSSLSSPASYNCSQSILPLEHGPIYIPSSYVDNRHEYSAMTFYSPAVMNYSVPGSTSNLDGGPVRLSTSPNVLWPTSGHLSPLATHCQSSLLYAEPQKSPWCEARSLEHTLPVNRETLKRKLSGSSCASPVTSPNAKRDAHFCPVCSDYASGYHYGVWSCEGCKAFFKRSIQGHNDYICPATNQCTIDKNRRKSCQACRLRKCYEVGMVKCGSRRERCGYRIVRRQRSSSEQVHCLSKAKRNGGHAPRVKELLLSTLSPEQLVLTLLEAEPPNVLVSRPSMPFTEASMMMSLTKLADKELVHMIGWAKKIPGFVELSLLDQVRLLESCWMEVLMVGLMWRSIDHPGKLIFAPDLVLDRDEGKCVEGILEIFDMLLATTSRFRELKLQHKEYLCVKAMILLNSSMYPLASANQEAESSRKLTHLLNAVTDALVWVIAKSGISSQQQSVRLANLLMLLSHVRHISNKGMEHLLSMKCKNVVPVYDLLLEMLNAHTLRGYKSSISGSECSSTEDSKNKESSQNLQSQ

## Oc1cccc(C2=Cc3ccc(O)cc3C23Cc2ccccc2C3)c1
Estrogen receptor [1]
  IC50: 16 nM
Estrogen receptor beta [2]
  IC50: 12 nM
Estrogen receptor [3]
  IC50: 31 nM
Estrogen receptor beta [4]
  IC50: 15 nM

## Oc1ccc2c(c1)C=C(c1ccccc1)C21Cc2ccccc2C1
Estrogen receptor beta [2]
  IC50: 21 nM
Estrogen receptor [3]
  IC50: 24 nM

## CC1=C(c2ccc(O)cc2)C2(Cc3ccccc3C2)c2ccc(O)cc21
Estrogen receptor [1]
  IC50: 2.2 nM
Estrogen receptor beta [2]
  IC50: 5.9 nM
Estrogen receptor [3]
  IC50: 19 nM
Estrogen receptor beta [4]
  IC50: 1.2 nM

## Oc1cccc(C2=Cc3cc(O)ccc3C23Cc2ccccc2C3)c1
Estrogen receptor [1]
  IC50: 34 nM
Estrogen receptor beta [2]
  IC50: 23 nM
Estrogen receptor [3]
  IC50: 28 nM
Estrogen receptor beta [4]
  IC50: 29 nM

## Oc1ccc(C2=Cc3cc(O)ccc3C23Cc2ccc(OCCN4CCCCC4)cc2C3)cc1 (centres undefined)
Estrogen receptor [1]
  IC50: 1.7 nM
Estrogen receptor beta [2]
  IC50: 1.9 nM
Estrogen receptor [3]
  IC50: 1 nM
Estrogen receptor beta [4]
  IC50: 2.7 nM

## Oc1ccc(C2=Cc3cc(O)ccc3C23Cc2ccccc2C3)cc1
Estrogen receptor beta [2]
  IC50: 2.1 nM
Estrogen receptor [3]
  IC50: 4.3 nM
Estrogen receptor beta [4]
  IC50: 1.1 nM

## C1=C(c2ccccc2)C2(Cc3ccccc3C2)c2ccccc21
Estrogen receptor [1]
  IC50: > 10000 nM
Estrogen receptor beta [2]
  IC50: > 10000 nM
Estrogen receptor [3]
  IC50: > 10000 nM
Estrogen receptor beta [4]
  IC50: > 10000 nM

## Oc1ccc2c(c1)CC1(C2)C(c2ccccc2)=Cc2ccccc21 (centres undefined)
Estrogen receptor [1]
  IC50: 114 nM
Estrogen receptor beta [2]
  IC50: 429 nM
Estrogen receptor [3]
  IC50: 58 nM
Estrogen receptor beta [4]
  IC50: 1070 nM

Reference: ChEMBL document CHEMBL1136557, “2-Phenylspiroindenes: a novel class of selective estrogen receptor modulators (SERMs)” (Bioorg Med Chem Lett, 2003)
